Reference: patent publication US20100310450A1, “METHOD OF DIAGNOSIS AND AGENTS USEFUL FOR SAME” (MEDVET SCIENCE PTY. LTD., priority 2006, published 2010)

Assays:
Raji = assay: Binding of La-specific mAb (3B9-FITC) to apoptotic human cancer cell lines, dual-colour flow cytometry; details: 2 μM staurosporine, 20 μg/mL etoposide or 0.1 μg/mL vincristine, 3B9-FITC and PI
PANC-1 cells [1] = assay: MTS proliferation assay with TSA and gemcitabine; format: cell-based, human; details: TSA alone
Experimental: FIG. 40 depicts that gemcitabine and TSA synergise to reduce proliferation rates among PANC-1 cells in vitro. PANC-1 cells (2×10^4 cells) were seeded in flat bottom 96-well plates overnight using phenol-free RPMI-1640 medium containing 10% FCS (medium). A serial dilution of 2×10^4 cells was used to construct a standard curve for the MTS assay. Triplicate wells were incubated with increasing concentrations of TSA (nM) with or without the addition of increasing concentrations of gemcitabine. Three identical plates were incubated for 24, 48 or 72 h then medium was decanted and fresh medium (100 μL) containing 20 μL MTS/PMS substrate was added to all wells. Assays were performed according to the manufacturer's instructions. The change in the absorbance reading over time was calculated for each condition in units of change per 12 h (upper panel), which was converted to units of cell number change per 12 h (lower panel) using a standard curve of the absorbance reading as a function of […] (r^2=0.99).

PANC-1 cells [2] = assay: Cell death (7-AAD) and 3B9-specific binding after gemcitabine and TSA; format: cell-based, human; details: TSA alone; data not shown
Experimental: FIG. 15 depicts that 3B9 binding to dead PANC-1 cells is augmented after combination treatment with gemcitabine and TSA produced additive cytotoxicity and DNA-damaging effects. PANC-1 cells were incubated with increasing concentrations of gemcitabine in the absence (clear columns) or presence of 100 ng/mL (hatched columns) or 200 ng/mL (filled columns) of TSA. Analysis was done for viability using 7-AAD (A), 3B9-specific binding (B) and DNA damage using γH2AX staining (C). Data are presented as mean±SEM from three independent experiments. Photomicrographs show PANC-1 cells treated with gemcitabine and TSA (+) or not (−), which were stained with γH2AX-specific mAb and 7-AAD (D).
PANC-1 cells (2×10^4 cells) were seeded in flat bottom 96-well plates overnight using phenol-free RPMI-1640 medium containing 10% FCS (medium). Cells were incubated with the specified concentrations of gemcitabine or TSA singly or in combination. Cells were collected (from media and EDTA detached adherent cells) and subjected to indirect immunofluorescence staining with Apomab or its Sal5 isotype control mAb and assessed for viability with 7-AAD staining. […]
(§1) Apoptosis or cell death was induced by adding cytotoxic drugs to culture media at the specified concentrations. […] Control (untreated) cells had ≧90% viability determined by PI or trypan blue staining (data not shown). […]

Jurkat cells = assay: Apomab-specific binding to cisplatin-treated Jurkat cells with TSA; format: cell-based, human; details: TSA added to 10 μg/mL cisplatin, 48 h
Experimental: FIG. 36 depicts that the histone deacetylase inhibitor (HDACi) trichostatin A (TSA) exerts dose-dependent synergy with cisplatin to augment Apomab-specific binding to dead Jurkat cells. Jurkat cells were incubated for 48 h with 10 μg/mL cisplatin together with increasing concentrations of TSA. Cells were subjected to indirect immunofluorescence staining using Apomab or its Sal5 isotype control mAb and viability was assessed using 7-AAD. Apomab-specific binding was calculated as the Net MFI after gating on 7-AAD^+ events. Data are presented as the mean±SEM from two separate experiments. (A) Apomab-specific binding to cisplatin-treated Jurkat cells is plotted as a function of TSA concentration. […]
as §1
Indirect immunofluorescence staining was performed using purified mouse antibodies at 5 μg/mL for 30 min. at room temperature (RT) in PBS followed by Alexa488-conjugated anti-mouse IgG at 2 μg/mL for 30 min. at RT in PBS. […] Cell viability was assessed by the exclusion of PI (0.5 μg/mL) and detected using the FL-2 channel (585 nm filter) or by the exclusion of 7-AAD (2 μg/mL for 15 min. at RT) and detected using the FL-3 channel (>650 nm filter). […]

apoptotic Jurkat cells = assay: Inhibition by the TG2 inhibitor MDC of protein crosslinking and 3B9 binding in cisplatin-treated Jurkat cells; format: cell-based, human; details: 20 μg/mL cisplatin
Experimental: FIG. 18 depicts that La antigen is crosslinked during apoptosis. (A) Jurkat cells incubated in 20 μg/mL cisplatin were removed at specified time points and incubated for 10 min. in 1% Triton X-100 solution before 3B9 binding analysis. Data are presented as density plots of staining with 3B9 vs. 7-AAD. (B) Immunoblots of cell lysates of control and cisplatin-treated Jurkat cells were probed with 3B9 for expression of La (top panels) or actin as a loading control (bottom panels) at specified times. (C) Jurkat cells incubated in the absence or presence of increasing concentrations of cisplatin were labeled with cadaverine-biotin added at 100 μM for 48 h. Cells were stained with strepatavidin-Alexa488 and analyzed by flow cytometry. Data shown are MFI±SEM (n=3). […] Cells were analyzed at specified times (24 □, 48 ? and 72 h ▪) for sulforhodamine 101 staining. […]
Transglutaminase 2 (TG2)-mediated protein-protein crosslinking in apoptotic cells was investigated using a modification of a previously described method. […] Samples were vortexed and incubated for 5 min. before analysis by flow cytometry where fluorescence from Sytox Green and sulforhodamine were detected using FL-1 and FL-3, respectively. The degree of crosslinking in apoptotic cells was calculated as the ratio of the MFI of sulforhodamine staining in apoptotic cells to the MFI in control cells (protein crosslinking ratio). […]

## CC[C@]1(O)C[C@H]2CN(CCc3c([nH]c4ccccc34)[C@@](C(=O)OC)(c3cc4c(cc3OC)N(C=O)[C@H]3[C@@](O)(C(=O)OC)[C@H](OC(C)=O)[C@]5(CC)C=CCN6CC[C@]43[C@@H]65)C2)C1 [Vincristine, vincristine]
Raji
  percentages of PI+ and 3B9+ events after subtraction of control (PI+ and Sal5+) events: 9.8%

## CC(/C=C/C(=O)NO)=C\[C@@H](C)C(=O)c1ccc(N(C)C)cc1 [TSA, trichostatin A]
PANC-1 cells [1]
  effect on proliferation of PANC-1 cells: inhibited proliferation
PANC-1 cells [2]
  3B9 binding in comparison with control PANC-1 cells: did not alter 3B9 binding
Jurkat cells
  Apomab-specific binding to dead Jurkat cells: dose-dependent increase

## CN(C)c1cccc2c(S(=O)(=O)NCCCCCN)cccc12 [MDC, monodansylcadaverine]
Apoptotic Jurkat cells
  effect on protein crosslinking (sulforhodamine crosslinking ratio): dose-dependent inhibitory effect
